The text below walks through data of US20260325540A1 (priority 2023, published 2026).

For the assay, the target named is HCoV-229E 3CL protease (Human coronavirus 229E, UniProt P0C6U2). The assay can be described thus: FRET based protease assay, HCoV-229E 3CL. Type of assay: biochemical. As to conditions: 229E IC50, 6 nM H229E-CoV Chis-3CLpro, 6 μM peptide 1 substrate, 25° C., 1.5 hrs, pH 7.5.
Sequence of HCoV-229E 3CL protease (P0C6U2 2966-3267): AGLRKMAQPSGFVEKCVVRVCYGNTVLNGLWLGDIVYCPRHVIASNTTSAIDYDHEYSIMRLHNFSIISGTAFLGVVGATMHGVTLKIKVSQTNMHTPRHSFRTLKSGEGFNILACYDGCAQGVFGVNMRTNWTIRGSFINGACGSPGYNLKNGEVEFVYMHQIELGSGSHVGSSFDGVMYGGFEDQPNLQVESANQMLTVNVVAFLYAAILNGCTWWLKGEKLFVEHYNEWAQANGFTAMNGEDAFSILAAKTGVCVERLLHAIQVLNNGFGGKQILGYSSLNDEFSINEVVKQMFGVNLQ
Turning to `CC1(C)[C@@H]2[C@H]3C(=O)N[C@H](C#N)C[C@@H]4C(=O)NC[C@@H]4CCCC[C@H](NC(=O)c4ccc(F)cc4C(F)(F)F)C(=O)N3C[C@@H]21` [Example 139], the half-inhibitory concentration (IC50) (in general, the midpoint of a concentration-inhibition curve) was less than 0.1 µM.
In the case of `CN1C[C@@H]2CCCC[C@H](NC(=O)OC(C)(C)C)C(=O)N3C[C@H]4[C@@H]([C@H]3C(=O)N[C@H](C#N)C[C@@H]2C1=O)C4(C)C` [Example 140] it was 1 to 20 µM.
Take `CC1(C)[C@@H]2[C@H]3C(=O)N[C@H](C#N)C[C@@H]4C(=O)NC[C@@H]4CCCC[C@H](NC(=O)C(C)(C)C(F)(F)F)C(=O)N3C[C@@H]21` [Example 141]: the half-maximal inhibitory concentration (IC50) is less than 0.1 µM.
Compound `CC(C)(C)C[C@@H]1NC(=O)[C@@H](NC(=O)c2ccc(F)c(C(F)(F)F)c2)CCCC[C@H]2CNC(=O)[C@H]2C[C@@H](C#N)NC1=O` [Example 142] had an IC50 of 0.1 to 1 µM.
For `CC(C)(C)OC(=O)N[C@H]1CCCC[C@H]2CNC(=O)[C@H]2C[C@@H](C#N)NC(=O)[C@@H]2CCCCCN2C1=O` [Example 143], the 50% inhibitory concentration (IC50) lay within 0.1 to 1 µM.
Compound `CCO[C@@H]1C[C@H]2C(=O)N[C@H](C#N)C[C@@H]3C(=O)NC[C@@H]3CCCC[C@H](NC(=O)OC(C)(C)C)C(=O)N2C1` [Example 144] came in with an IC50 of 0.1 to 1 µM.
In the case of `CCC(C)(C)[C@@H]1NC(=O)[C@@H](NC(=O)OC(C)(C)C)CCCC[C@H]2CNC(=O)[C@H]2C[C@@H](C#N)NC1=O` [Example 145] it was 1 to 20 µM; in that of `CC(C)(C)OC(=O)N[C@H]1CCCC[C@H]2CNC(=O)[C@H]2C[C@@H](C#N)NC(=O)[C@H]2N(CC(F)(F)C2(C)C)C1=O` [Example 146], 0.1 to 1 µM.
In the case of `CO[C@@H]1C[C@H]2C(=O)N[C@H](C#N)C[C@@H]3C(=O)NC[C@@H]3CCCC[C@H](NC(=O)OC(C)(C)C)C(=O)N2C1` [Example 147] it was 0.1 to 1 µM; in that of `CC1(C)[C@@H]2[C@H]3C(=O)N[C@H](C#N)C[C@@H]4C(=O)NC[C@@H]4CCCC[C@H](NC(=O)C45CCC(C4)C5)C(=O)N3C[C@@H]21` [Example 148], less than 0.1 µM.
The compound `CC(C)(C)C[C@@H]1NC(=O)[C@@H](NC(=O)C2(C(F)(F)F)CC2)CCCC[C@H]2CNC(=O)[C@H]2C[C@@H](C#N)NC1=O` [Example 149] registered an IC50 of less than 0.1 µM.
In the case of `N#C[C@@H]1C[C@@H]2C(=O)NC[C@@H]2CCCC[C@H](NC(=O)C2(C(F)(F)F)CC2)C(=O)N2C[C@@H]3CCC[C@@H]3[C@H]2C(=O)N1` [Example 150], the IC50 is less than 0.1 µM.
With `N#C[C@@H]1C[C@@H]2C(=O)NC[C@@H]2CCCC[C@H](NC(=O)C2(C(F)(F)F)CC2)C(=O)N2CCC3(CC3)C[C@H]2C(=O)N1` [Example 151], the IC50 was less than 0.1 µM.
Under `CC1(C)[C@@H]2[C@H]3C(=O)N[C@H](C#N)C[C@@H]4C(=O)NC[C@@H]4CCCC[C@H](NC(=O)OC4(C(F)(F)F)CCC4)C(=O)N3C[C@@H]21` [Example 152] stands less than 0.1 µM.
Compound `CC1(C)[C@@H]2[C@H]3C(=O)N[C@H](C#N)C[C@@H]4C(=O)NC[C@@H]4CCCC[C@H](NC(=O)c4cc(C(F)(F)F)on4)C(=O)N3C[C@@H]21` [Example 153] yielded an IC50 of less than 0.1 µM.
In the case of `CC1(C)[C@@H]2[C@H]3C(=O)N[C@H](C#N)C[C@@H]4C(=O)NC[C@@H]4CCCC[C@H](NS(=O)(=O)c4ccccc4)C(=O)N3C[C@@H]21` [Example 154] it was less than 0.1 µM; in that of `N#C[C@@H]1C[C@@H]2C(=O)NC[C@@H]2CCCC[C@H](NS(=O)(=O)c2ccc(F)cc2F)C(=O)N2C[C@@H]3CCC[C@@H]3[C@H]2C(=O)N1` [Example 155], less than 0.1 µM.
`CC1(C)[C@@H]2[C@H]3C(=O)N[C@H](C#N)C[C@@H]4C(=O)NC[C@@H]4CCCC[C@H](NS(=O)(=O)C4CC4)C(=O)N3C[C@@H]21` [Example 156] showed a half-maximal inhibitory concentration (IC50) of less than 0.1 µM.
Consider `CC1(C)[C@@H]2[C@H]3C(=O)N[C@H](C#N)C[C@@H]4C(=O)NC[C@@H]4CCCC[C@H](NS(=O)(=O)c4ccc(F)cc4F)C(=O)N3C[C@@H]21` [Example 157], for which the half-maximal inhibitory concentration (IC50) is less than 0.1 µM.
With `CC1(C)[C@@H]2[C@H]3C(=O)N[C@H](C#N)C[C@@H]4C(=O)NC[C@@H]4CCCC[C@H](NS(=O)(=O)C(F)(F)F)C(=O)N3C[C@@H]21` [Example 158], the IC50 was less than 0.1 µM.
`CC1(C)[C@@H]2[C@H]3C(=O)N[C@H](C#N)C[C@@H]4C(=O)NC[C@@H]4CCCC[C@H](NS(=O)(=O)C4(C)CC4)C(=O)N3C[C@@H]21` [Example 159] showed a half-inhibitory concentration (IC50) of less than 0.1 µM.
Under `CC1(C)[C@@H]2[C@H]3C(=O)N[C@H](C#N)C[C@@H]4C(=O)NC[C@@H]4CCCC[C@H](NS(=O)(=O)C4CCC4)C(=O)N3C[C@@H]21` [Example 160] stands less than 0.1 µM; under `CC1(C)[C@@H]2[C@H]3C(=O)N[C@H](C#N)C[C@@H]4C(=O)NC[C@@H]4CCCC[C@H](N)C(=O)N3C[C@@H]21` [Example 161], less than 0.1 µM; under `CC1(C)[C@@H]2[C@H]3C(=O)N[C@H](C#N)C[C@@H]4C(=O)NC[C@@H]4CCCC[C@H](Nc4nccc(C(F)(F)F)n4)C(=O)N3C[C@@H]21` [Example 162], less than 0.1 µM.
`CC1(C)[C@@H]2[C@H]3C(=O)N[C@H](C#N)C[C@@H]4C(=O)NC[C@@H]4CCCC[C@H](Nc4cc(C(F)(F)F)ncn4)C(=O)N3C[C@@H]21` [Example 163] registered an IC50 of less than 0.1 µM.
Under `CC1(C)[C@@H]2[C@H]3C(=O)N[C@H](C#N)C[C@@H]4C(=O)NC[C@@H]4CCCC[C@H](Nc4ccnc(C(F)(F)F)n4)C(=O)N3C[C@@H]21` [Example 164] stands less than 0.1 µM; under `N#C[C@@H]1C[C@@H]2C(=O)NC[C@@H]2CCCC[C@H](Nc2nccc(C(F)(F)F)n2)C(=O)N2C[C@@H]3CCC[C@@H]3[C@H]2C(=O)N1` [Example 165], 0.1 to 1 µM.
In the case of `CC(C)(C)NC(=O)[C@@H]1CCCC[C@H]2CNC(=O)[C@H]2C[C@@H](C#N)NC(=O)[C@@H]2[C@@H]3[C@H](CN2C1=O)C3(C)C` [Example 166] it was 1 to 20 µM; in that of `CC(C)(C)NC(=O)[C@H]1CCCC[C@H]2CNC(=O)[C@H]2C[C@@H](C#N)NC(=O)[C@@H]2[C@@H]3[C@H](CN2C1=O)C3(C)C` [Example 167], 0.1 to 1 µM; in that of `CC(C)(C)OC(=O)NN1CCCC[C@H]2CNC(=O)[C@H]2C[C@@H](C#N)NC(=O)[C@@H]2[C@@H]3[C@H](CN2C1=O)C3(C)C` [Example 168], 1 to 20 µM.
